Laboratory results taken from publication PMC6810216, “Human-to-Human Transmission of Influenza A(H3N2) Virus with Reduced Susceptibility to Baloxavir, Japan, February 2019” (Emerging Infectious Diseases, 2019).

Experiments:
[1] = system: influenza A(H3N2) viruses isolated in the 2018–19 season in Japan; assay: microbe, parasite or virus in culture; type: cell-based; conditions: n = 83, read-out: Median IC50 + SD
[2] = biological target: neuraminidase (NA) of A(H3N2) of 2018–19 (Influenza A virus (H3N2), UniProt A0A193ACB1); type: biochemical; conditions: n = 170; read-out: Median IC50 + SD

CCC(CC)[C@H](NC(C)=O)[C@@H]1[C@H](O)[C@@H](C(=O)O)C[C@H]1N=C(N)N [Peramivir, peramivir] was tested. Which IC50 [2] did it give?
Its IC50 is 0.13 nM.
